Measurements taken from ChEMBL document CHEMBL1159307, “Theopederins K and L. Highly potent cytotoxic metabolites from a marine sponge Discodermia species” (J Nat Prod, 2002).

Key:
[1] = tested on: P388; assay: Cytotoxicity against mouse P388 cells; assay type: functional, cell-based
[2] = tested on: A549; assay: Cytotoxicity against human A549 cells; assay type: functional, cell-based

Compound	IC50 [1] [nM]	IC50 [2] [nM]
C=C1C[C@](OC)([C@H](O)C(=O)N[C@H]2OCO[C@H]3[C@@H]2O[C@H](CC(/C=C/C/C=C/C=C/C(=O)OC)OC)C(C)(C)[C@@H]3OC)O[C@H](C)[C@@H]1C (stereo partly specified) [THEOPEDERIN K METHYL ESTER]	0.3	0.8
C=C1C[C@](OC)([C@H](O)C(=O)N[C@H]2OCO[C@H]3[C@@H]2O[C@H](CC(/C=C/C/C=C/C=C/C(=O)O)OC)C(C)(C)[C@@H]3OC)O[C@H](C)[C@@H]1C (stereo partly specified) [THEOPEDERIN K]	0.1	1.5
C=C1C[C@](OC)([C@H](O)C(=O)N[C@H]2OCO[C@H]3[C@@H]2O[C@H](CC(O)/C=C/C/C=C/C=C/C(=O)O)C(C)(C)[C@@H]3OC)O[C@H](C)[C@@H]1C (stereo partly specified) [THEOPEDERIN L]	7.3	3.2
